Laboratory results as given in paper PMC5096949 (Toxicology letters, 2016).

Molecular target: T1, Human Recombinant FAAH (fatty acid amide hydrolase) (Homo sapiens, UniProt O00519)
T1 sequence (O00519 1-579): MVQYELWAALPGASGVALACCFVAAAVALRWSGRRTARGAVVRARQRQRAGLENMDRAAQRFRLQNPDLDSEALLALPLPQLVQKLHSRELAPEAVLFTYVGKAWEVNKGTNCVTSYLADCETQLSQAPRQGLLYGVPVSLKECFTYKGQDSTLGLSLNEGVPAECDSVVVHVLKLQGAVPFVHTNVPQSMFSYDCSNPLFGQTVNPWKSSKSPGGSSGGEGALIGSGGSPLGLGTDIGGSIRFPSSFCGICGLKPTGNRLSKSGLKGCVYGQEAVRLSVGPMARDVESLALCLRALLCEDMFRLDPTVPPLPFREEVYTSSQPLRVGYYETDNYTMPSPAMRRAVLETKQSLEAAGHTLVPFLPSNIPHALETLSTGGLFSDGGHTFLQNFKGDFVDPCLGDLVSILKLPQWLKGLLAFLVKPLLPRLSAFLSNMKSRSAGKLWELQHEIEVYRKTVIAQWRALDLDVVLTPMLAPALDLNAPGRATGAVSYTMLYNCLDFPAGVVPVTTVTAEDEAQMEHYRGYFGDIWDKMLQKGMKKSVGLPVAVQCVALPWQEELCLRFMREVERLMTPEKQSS
Experiment: FAAH inhibition, fluorimetric assay with OMP substrate, recombinant enzyme
Type: biochemical

[1] = as inhibitor concentration increases

SMILES: O=C(OCc1ccccc1)c1ccc(O)cc1 [Benzylparaben, benzylparaben]
- mechanism of FAAH inhibition: mixed type mechanism
- Ki (Ki, linear mixed-type model of inhibition): 52 ± 14 nM
- potency relative to URB597 (less potent) (after a 5 min incubation): 3 fold
- change in KM app [1]: 18 to 98 µM
- change in Vmax app [1]: 5.5 RFU/s to 2.0 RFU/s
- α value (linear mixed-type model of inhibition): 9.7 ± 6.6
- time-dependence of FAAH inhibition (pre-incubation of enzyme with inhibitor up to 1 h): independent on incubation time
- Ki (upper limit of relative Ki, at saturating substrate, mixed-type interaction): ≤ 1000 nM
